Here are results for two molecules from publication PMC10590756, “Glutarate regulates T cell metabolism and anti-tumour immunity” (Nature Metabolism, 2023).

One experiment addresses T1, human KDM4C enzyme (Homo sapiens, UniProt Q9H3R0).
T1 construct: purchased BPS Bioscience 50105
The experiment is described as follows: Cell-free KDM4C enzymatic activity assay. Type of experiment: biochemical. On the procedure: A total of 2 nM of the human TET2 enzyme (catalogue no. 50162, BPS Bioscience) or 4 nM of the human KDM4C enzyme (catalogue no. 50105, BPS Bioscience) was incubated with the substrate of 30 nM single-stranded DNA (ssBiotin 26 nt Me-C Oligo, Genscript), in the presence of αKG (catalogue no. K3752, Sigma-Aldrich), 10 µM ammonium iron(II) sulphate hexahydrate (catalogue no. F3754, Sigma-Aldrich) in assay buffer (50 mM HEPES (catalogue no. 15630-080, Gibco), pH 7.0, 100 mM NaCl, 0.01% Pluronic F-127, 1 mM TCEP (S16054, Shanghai Yuanye Bio-Technology Company), 2 mM ascorbic acid (A5960, Sigma-Aldrich), 0.2 mg/ml BSA (catalogue no. B2064, Sigma-Aldrich) and 1,000 U ml^−1 catalase (catalogue no. C40, Sigma-Aldrich)). […] The concentration of αKG used in the standard assay was calculated for each enzyme batch and is the concentration of substrate at which half the maximum reaction rate is achieved. […] The product was detected by using a 5 nM anti-5hmC antibody (catalogue no. 39999, Active Motif), 5 nM Eu-Protein A (catalogue no. 61PRAKLB, Cisbio), 6.25 nM streptavidin-Alexa Fluor 647 (catalogue no. S21374, Thermo Fisher Scientific) and 10 mM EDTA (catalogue no. 0369, Sigma-Aldrich). […]
The percentage of inhibition was calculated with the following formula: inhibition% = (1−(signal value per well−average low control)/(average high control−average low control)) × 100. […]

The target in another experiment is T2, human TET2 enzyme (Homo sapiens, UniProt Q6N021).
T2 construct: purchased BPS Bioscience 50162
As to the kind of experiment: Cell-free TET2 enzymatic activity assay. In kind it is biochemical. The method, then:
A total of 2 nM of the human TET2 enzyme (catalogue no. 50162, BPS Bioscience) or 4 nM of the human KDM4C enzyme (catalogue no. 50105, BPS Bioscience) was incubated with the substrate of 30 nM single-stranded DNA (ssBiotin 26 nt Me-C Oligo, Genscript), in the presence of αKG (catalogue no. K3752, Sigma-Aldrich), 10 µM ammonium iron(II) sulphate hexahydrate (catalogue no. F3754, Sigma-Aldrich) in assay buffer (50 mM HEPES (catalogue no. 15630-080, Gibco), pH 7.0, 100 mM NaCl, 0.01% Pluronic F-127, 1 mM TCEP (S16054, Shanghai Yuanye Bio-Technology Company), 2 mM ascorbic acid (A5960, Sigma-Aldrich), 0.2 mg/ml BSA (catalogue no. B2064, Sigma-Aldrich) and 1,000 U ml^−1 catalase (catalogue no. C40, Sigma-Aldrich)). The concentration of αKG used for the TET2 standard and competitive assays was 115 µM and 4,500 µM, respectively. The concentration of αKG used for the KDM4C standard and competitive assays was 10 µM and 50 µM, respectively. The concentration of αKG used in the standard assay was calculated for each enzyme batch and is the concentration of substrate at which half the maximum reaction rate is achieved. DEG and glutaric acid were used in threefold serial dilution and the maximum concentration used was 5 mM. The pre-incubation time of the inhibitors with the TET2 mixture was 30 min at room temperature. The reaction step was at room temperature for 90 min. The product was detected by using a 5 nM anti-5hmC antibody (catalogue no. 39999, Active Motif), 5 nM Eu-Protein A (catalogue no. 61PRAKLB, Cisbio), 6.25 nM streptavidin-Alexa Fluor 647 (catalogue no. S21374, Thermo Fisher Scientific) and 10 mM EDTA (catalogue no. 0369, Sigma-Aldrich). For the standard curve, the ssBiotin 26 nt HydMe-C Oligo was used. The assays were performed in technical duplicates in a 384-well plate. Inhibitor analysis was performed within the linear range of catalysis.
The percentage of inhibition was calculated with the following formula: inhibition% = (1−(signal value per well−average low control)/(average high control−average low control)) × 100. Data were fitted using Prism (GraphPad Software) with a four-parameter equation via ‘log(inhibitor) versus response−variable slope’ model.

For another experiment, the system named is human CD8^+ T cells. The experiment is described as follows: Memory populations (CCR7/CD45RO) of human CD8^+ T cells by flow cytometry. In kind it is cell-based. On the procedure: This contrasts with octyl ester S-2HG, which decreases cell growth from 400 µM (Extended Data Fig. 1c).
Human PBMCs were obtained from NHSBT: Addenbrooke’s Hospital, Cambridge, UK or the Karolinska Hospital Service, Sweden. Ethical approval was obtained from the East of England-Cambridge Central Research Ethics Committee (06/Q0108/281) and consent was obtained from all participants. PBMCs from healthy donors were isolated from blood using discontinuous plasma Percoll gradients. Naive CD8^+ T cells were isolated using the Naive CD8^+ T Cell Isolation Kit (catalogue no. 130-093-244, Miltenyi Biotec), in accordance with the manufacturer’s instructions. Total CD8^+ T cells were purified by either positive or negative magnetic bead sorting (catalogue nos. 130-045-201 and 130-096-495, Miltenyi Biotec). All human CD8^+ T cells were activated with anti-human CD3/CD28 Dynabeads (catalogue no. 11131D, Thermo Fisher Scientific) at a 1:1 cell:bead ratio and cultured in complete RPMI 1640 supplemented with 10% FCS, 100 U ml^−1 penicillin, 100 µg ml^−1 streptomycin and 30 U ml^−1 interleukin-2 (IL-2) (catalogue no. 11147528001, Sigma-Aldrich).
Single-cell suspensions were stained with LIVE/DEAD Fixable Near-IR Dead Cell Stain Kit (catalogue no. 10119, Thermo Fisher Scientific) followed by surface and intracellular staining with fluorochrome-labelled antibodies (Supplementary Tables 1 and 2). Staining of cytoplasmic and nuclear antigens was performed using the Cytofix/Cytoperm Fixation/Permeabilization Kit (catalogue no. 554714, BD Biosciences) and the Transcription Factor Buffer Set (catalogue no. 562725, BD Biosciences), respectively. For the proliferation assays, cells were loaded with CellTrace Violet (catalogue no. C34557, Thermo Fisher Scientific) according to the manufacturer’s instructions. Samples were acquired on an Aurora (Cytek Biosciences).

The test system of experiment [1] is HIF-P4H activity against pFLAG-Gal4-mHIF-1α NTAD. As to the kind of experiment: HIF-PH activity luciferase reporter assay in MEFs. Type of experiment: cell-based, mouse. The source says:
To test HIF-P4H inhibition via DEG treatment in a cellular system, we used a luciferase reporter assay driven by a Gal4 response element (GRE-luc), pFLAG-Gal4-mHIF-1α N-terminal transcription activation domain (NTAD)[35]. The NTAD contains proline residues that are hydroxylated by HIF-P4H enzymes to target the protein for degradation; thus, luciferase expression in this assay is controlled by HIF-P4H hydroxylation activity against the pFLAG-Gal4-mHIF-1α NTAD.
MEFs were transiently transfected using Lipofectamine 2000 (Thermo Fisher Scientific) with 20 ng per expression plasmid for 2 × 10^4 cells per well in a 96-well plate. Cells were treated with transfection mixes for 8 h.
Generation of plasmids for the HIF-PH activity luciferase reporter assay has been described previously: luciferase reporter driven by GRE-luc pFLAG-Gal4-mHIF-1α NTAD[35]. […] After 8 h of transient transfection with expression plasmids, cells were treated with experimental medium containing metabolites and drugs as described in the figure legends for 16 h; then, the luciferase signal assessed using the Steady-Glo Luciferase Assay System (Promega Corporation) detected using a luminometer. […]

T1 sequence (Q9H3R0 2-372 limits assumed): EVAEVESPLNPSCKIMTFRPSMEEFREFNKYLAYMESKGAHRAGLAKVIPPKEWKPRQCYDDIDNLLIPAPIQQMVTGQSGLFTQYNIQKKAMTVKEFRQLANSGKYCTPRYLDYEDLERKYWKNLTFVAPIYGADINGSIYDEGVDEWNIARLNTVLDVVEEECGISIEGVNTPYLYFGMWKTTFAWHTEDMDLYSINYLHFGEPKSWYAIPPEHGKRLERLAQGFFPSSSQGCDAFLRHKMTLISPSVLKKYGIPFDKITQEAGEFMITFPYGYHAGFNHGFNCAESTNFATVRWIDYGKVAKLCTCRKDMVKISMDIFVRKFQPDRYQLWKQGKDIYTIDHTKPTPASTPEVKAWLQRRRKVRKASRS

Turning to `CCOC(=O)CCCC(=O)OCC` [DEG, Diethyl glutarate], on human KDM4C enzyme (cell-free, DEG alone), the KDM4C inhibition entry is “not capable of inhibiting”. The TET2 inhibition result on human TET2 enzyme (cell-free, increasing concentrations, maximum 5 mM) is given as “did not inhibit”. Moreover, in the experiment with human CD8^+ T cells (7 days of culture with DEG), the “TCM population (CCR7^hiCD45RO^hi)” value is on record as “increased the TCM population” and the “effector memory T (TEM) cell population (CCR7^loCD45RO^hi)” value was “decreased”. The “cellular HIF-P4H activity” value in experiment [1] (MEFs, 16 h, increasing concentrations of DEG) is “can inhibit”.

Consider `O=C(O)CCCC(=O)O` [glutarate, glutaric acid], for which the IC50 against human KDM4C enzyme was 1000 µM; at human TET2 enzyme (IC50 TET2 + 40× αKG, αKG 4,500 µM (competitive assay)), ~5000 µM; on human TET2 enzyme (IC50 recombinant TET2, cell-free), 1500 µM. Besides, the “mode of TET2 inhibition” value at human TET2 enzyme (reduced inhibition with increased levels of αKG) is recorded as “competitive with αKG”. For the same molecule, the TCM populations result in the experiment on human CD8^+ T cells (glutarate alone (not esterified), higher doses, 10 days of culture) is listed as “capable of increasing TCM populations”. Besides, the “mode of HIF-P4H-1 inhibition” value in experiment [1] (MEFs treated 16 h with DEG and dimethyl αKG) was “αKG-competitive”.
